Results reported in ChEMBL document CHEMBL3885861, “Open TG-GATES”.

Species: Rattus norvegicus
Test: Open TG-GATES - Regimen: Single
Type: toxicity, organism-based, Sprague-Dawley
Design: regimen Single, gender Male, age 6 weeks
Conditions: in vivo, po, 300 mg/kg, route gavage, dose level High; for APTT / Bas / Eos / Fbg / Hb / Ht / Lym / MCH / MCHC / MCV / Mono / Neu / PT / Plat / RBC / Ret / WBC: tissue Blood; for KIDNEY_L / KIDNEY_R / KIDNEY_TOTAL: tissue Kidney; for LIVER: tissue Liver; for A/G / ALP / ALT / AST / BUN / CRE / Ca / Cl / DBIL / GLC / IP / K / LDH / Na / PL / RALB / TBIL / TC / TG / TP / gamma-GTP: tissue Plasma

Nc1ccc(Cc2ccc(N)cc2)cc1
TERMINAL_BW (3 h): 208.2 g | APTT (3 h): 15.8 s | Bas (3 h): 0% | Eos (3 h): 0.8% | Fbg (3 h): 257.6 mg/dL | Hb (3 h): 13.2 g/dL | Ht (3 h): 38.1% | Lym (3 h): 67.2% | MCH (3 h): 22 pg | MCHC (3 h): 34.5% | MCV (3 h): 63.6 fL | Mono (3 h): 6% | Neu (3 h): 25.6% | PT (3 h): 12.1 s | Plat (3 h): 142.6 x10_4/uL | RBC (3 h): 600 x10_4/ul | Ret (3 h): 8.7% | WBC (3 h): 64.7 x10_2/uL | KIDNEY_L (3 h): 0.9 g | KIDNEY_R (3 h): 0.9 g | KIDNEY_TOTAL (3 h): 1.8 g | LIVER (3 h): 9 g | A/G (3 h): 0.8 | ALP (3 h): 1363.8 IU/L | ALT (3 h): 64 IU/L | AST (3 h): 137.4 IU/L | BUN (3 h): 10.6 mg/dL | CRE (3 h): 0.2 mg/dL | Ca (3 h): 10.5 mg/dL | Cl (3 h): 102 meq/L | DBIL (3 h): 0.094 mg/dL | GLC (3 h): 183.4 mg/dL | IP (3 h): 9.4 mg/dL | K (3 h): 4 meq/L | LDH (3 h): 175.4 IU/L | Na (3 h): 139.8 meq/L | PL (3 h): 170.8 mg/dL | RALB (3 h): 2.5 g/dL | TBIL (3 h): 0.2 mg/dL | TC (3 h): 81.4 mg/dL | TG (3 h): 79 mg/dL | TP (3 h): 5.4 g/dL | gamma-GTP (3 h): 2.6 IU/L | TERMINAL_BW (6 h): 207.7 g | APTT (6 h): 15.1 s | Bas (6 h): 0% | Eos (6 h): 0.6% | Fbg (6 h): 257.4 mg/dL | Hb (6 h): 13.3 g/dL | Ht (6 h): 38.2% | Lym (6 h): 60.6% | MCH (6 h): 21 pg | MCHC (6 h): 34.8% | MCV (6 h): 60.2 fL | Mono (6 h): 3.4% | Neu (6 h): 34.6% | PT (6 h): 11.9 s | Plat (6 h): 133.9 x10_4/uL | RBC (6 h): 634.6 x10_4/ul | Ret (6 h): 7.3% | WBC (6 h): 78.7 x10_2/uL | KIDNEY_L (6 h): 0.9 g | KIDNEY_R (6 h): 0.9 g | KIDNEY_TOTAL (6 h): 1.9 g | LIVER (6 h): 8.9 g | A/G (6 h): 0.8 | ALP (6 h): 1513.4 IU/L | ALT (6 h): 67 IU/L | AST (6 h): 168.6 IU/L | BUN (6 h): 11.8 mg/dL | CRE (6 h): 0.2 mg/dL | Ca (6 h): 10.2 mg/dL | Cl (6 h): 100.8 meq/L | DBIL (6 h): 0.4 mg/dL | GLC (6 h): 172.6 mg/dL | IP (6 h): 9.1 mg/dL | K (6 h): 4.2 meq/L | LDH (6 h): 196.8 IU/L | Na (6 h): 140.8 meq/L | PL (6 h): 152.8 mg/dL | RALB (6 h): 2.3 g/dL | TBIL (6 h): 0.6 mg/dL | TC (6 h): 79.8 mg/dL | TG (6 h): 42.6 mg/dL | TP (6 h): 5.1 g/dL | gamma-GTP (6 h): 5 IU/L | TERMINAL_BW (9 h): 208 g | APTT (9 h): 13.8 s | Bas (9 h): 0% | Eos (9 h): 0.4% | Fbg (9 h): 257 mg/dL | Hb (9 h): 12.6 g/dL | Ht (9 h): 35.8% | Lym (9 h): 52.2% | MCH (9 h): 21.1 pg | MCHC (9 h): 35.1% | MCV (9 h): 60.1 fL | Mono (9 h): 3.6% | Neu (9 h): 42.6% | PT (9 h): 11.9 s | Plat (9 h): 139.7 x10_4/uL | RBC (9 h): 595.6 x10_4/ul | Ret (9 h): 7.8% | WBC (9 h): 85.3 x10_2/uL | KIDNEY_L (9 h): 0.9 g | KIDNEY_R (9 h): 0.9 g | KIDNEY_TOTAL (9 h): 1.9 g | LIVER (9 h): 8.6 g | A/G (9 h): 0.8 | ALP (9 h): 1671 IU/L | ALT (9 h): 132.8 IU/L | AST (9 h): 365.6 IU/L | BUN (9 h): 11.8 mg/dL | CRE (9 h): 0.2 mg/dL | Ca (9 h): 10.3 mg/dL | Cl (9 h): 101.6 meq/L | DBIL (9 h): 0.7 mg/dL | GLC (9 h): 176.2 mg/dL | IP (9 h): 9.2 mg/dL | K (9 h): 4.3 meq/L | LDH (9 h): 351 IU/L | Na (9 h): 142 meq/L | PL (9 h): 173 mg/dL | RALB (9 h): 2.3 g/dL | TBIL (9 h): 1 mg/dL | TC (9 h): 85 mg/dL | TG (9 h): 45.2 mg/dL | TP (9 h): 5.1 g/dL | gamma-GTP (9 h): 7.4 IU/L | TERMINAL_BW (24 h): 197.2 g | APTT (24 h): 16.2 s | Bas (24 h): 0% | Eos (24 h): 1% | Fbg (24 h): 321.4 mg/dL | Hb (24 h): 12 g/dL | Ht (24 h): 33.2% | Lym (24 h): 52.8% | MCH (24 h): 21.6 pg | MCHC (24 h): 36% | MCV (24 h): 59.8 fL | Mono (24 h): 6.2% | Neu (24 h): 39% | PT (24 h): 11.9 s | Plat (24 h): 148.1 x10_4/uL | RBC (24 h): 554.4 x10_4/ul | Ret (24 h): 6% | WBC (24 h): 157.9 x10_2/uL | KIDNEY_L (24 h): 0.9 g | KIDNEY_R (24 h): 0.9 g | KIDNEY_TOTAL (24 h): 1.8 g | LIVER (24 h): 7.5 g | A/G (24 h): 0.8 | ALP (24 h): 3659.6 IU/L | ALT (24 h): 566.8 IU/L | AST (24 h): 1154.8 IU/L | BUN (24 h): 12 mg/dL | CRE (24 h): 0.2 mg/dL | Ca (24 h): 11 mg/dL | Cl (24 h): 102.6 meq/L | DBIL (24 h): 2.2 mg/dL | GLC (24 h): 145.6 mg/dL | IP (24 h): 8.7 mg/dL | K (24 h): 4 meq/L | LDH (24 h): 788.8 IU/L | Na (24 h): 144.2 meq/L | PL (24 h): 346.4 mg/dL | RALB (24 h): 2.4 g/dL | TBIL (24 h): 3.2 mg/dL | TC (24 h): 145.2 mg/dL | TG (24 h): 133.6 mg/dL | TP (24 h): 5.6 g/dL | gamma-GTP (24 h): 8.4 IU/L
